pIC50: −log10 of the molar value.

For orientation: pIC50 means the IC50 on a negative log10 scale, so that one unit is a factor of ten.

The target in this assay is T1, human IDO1 (Homo sapiens, UniProt P14902).
T1 construct: expressed in transfected cells
T1 sequence (P14902 whole entry): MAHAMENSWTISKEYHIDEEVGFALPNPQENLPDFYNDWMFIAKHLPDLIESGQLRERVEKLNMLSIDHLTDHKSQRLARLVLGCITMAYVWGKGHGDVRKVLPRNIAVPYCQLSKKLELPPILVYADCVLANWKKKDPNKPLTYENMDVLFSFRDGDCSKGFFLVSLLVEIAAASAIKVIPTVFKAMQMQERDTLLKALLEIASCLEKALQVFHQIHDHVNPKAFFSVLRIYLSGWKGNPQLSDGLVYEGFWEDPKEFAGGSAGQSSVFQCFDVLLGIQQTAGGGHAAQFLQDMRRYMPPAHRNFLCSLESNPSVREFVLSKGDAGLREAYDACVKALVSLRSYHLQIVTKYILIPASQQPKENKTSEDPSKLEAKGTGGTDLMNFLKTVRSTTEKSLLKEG
Put plainly: IDO inhibition assay in human IDO1/HEK293 cells (IDO1 HEK Human). In kind it is cell-based. Conditions: HEK293 cells stably expressing human IDO1; 20 hours incubation; absorbance at 490 nm after Ehrlich reagent. In outline:
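HEK293 clones stably expressing human IDO1 (10,000 cells/well, phenol red-free RPMI, 10% FBS) were treated with compound for 20 hours at 37° C. After 0.2% TCA and 30 min at 50° C., kynurenine was read with Ehrlich reagent at 490 nm. IC50 was normalised to DMSO (0%) and 500 nM reference standard (100%).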
The molecule `Cc1ccc(CC(=O)Nc2cc(-c3ccccc3-c3nnn[nH]3)cc3c2OCCCC3C(C)C)cc1` (single isomer, unassigned) [25 (En. 1), N-(7-(2-(1H-tetrazol-5-yl)phenyl)-5-isopropyl-2,3,4,5-tetrahydrobenzo[b]oxepin-9-yl)-2-(p-tolyl)acetamide] gave a pIC50 of 7.54.
The result for `C=C[C@H]1Oc2c(NC(=O)Nc3ccc(C)cc3)cc(-c3ccccc3-c3nnn[nH]3)cc2[C@@H]1CCC(F)(F)F` (single isomer, unassigned) [Example 100, 1-((trans)-5-(2-(1H-tetrazol-5-yl)phenyl)-3-(3,3,3-trifluoropropyl)-2-vinyl-2,3-dihydrobenzofuran-7-yl)-3-(p-tolyl)urea] reads 7.68; that for `Cc1ccc(NC(=O)Nc2cc(-c3ccccc3-c3nnn[nH]3)cc3c2OC(C(C)C)C3c2ccccc2)cc1` (racemic) [Example 103], 7.96; that for `Cc1ccc(Nc2cc(-c3ccccc3-c3nnn[nH]3)cc3c2OCCCC3c2ccccc2)nc1` (single isomer, unassigned) [62 (En. 2), N-(7-(2-(1H-tetrazol-5-yl)phenyl)-5-phenyl-2,3,4,5-tetrahydrobenzo[b]oxepin-9-yl)-5-methylpyridin-2-amine], 7.35.
`c1ccc(C2CCCOc3c(Nc4ccn5nccc5n4)cc(-c4ccccc4-c4nnn[nH]4)cc32)cc1` (single isomer, unassigned) [84 (En. 2), N-(7-(2-(1H-tetrazol-5-yl)phenyl)-5-phenyl-2,3,4,5-tetrahydrobenzo[b]oxepin-9-yl) pyrazolo[1,5-a]pyrimidin-5-amine]: the negative logarithm of the IC50 (pIC50) was 7.59.
`CC1(C)Oc2c(NC(=O)Nc3ccccc3F)cc(-c3ccccc3C(=O)O)cc2C1c1ccccc1` (racemic) [Example 126, (±)-2-(7-(3-(2-Fluorophenyl)ureido)-2,2-dimethyl-3-phenyl-2,3-dihydrobenzofuran-5-yl)benzoic acid] gave a pIC50 of 6.51.
To `Cc1ccc(NC(=O)Nc2cc(-c3ccccc3C(=O)O)cc3c2OC(C)(C)C3c2ccccc2)cc1` (racemic) [Example 124, (±)-2-(2,2-Dimethyl-3-phenyl-7-(3-(p-tolyl)ureido)-2,3-dihydrobenzofuran-5-yl) benzoic acid] belongs 7.11; to `c1ccc(C2CCCOc3c(Nc4nc5ccccc5s4)cc(-c4ccccc4-c4nnn[nH]4)cc32)cc1` (single isomer, unassigned) [64 (En. 1), N-(7-(2-(1H-tetrazol-5-yl)phenyl)-5-phenyl-2,3,4,5-tetrahydrobenzo[b]oxepin-9-yl) benzo[d]thiazol-2-amine], 6.38; to `COC(=O)c1c(OC)cccc1-c1cc(NC(=O)Nc2ccc(C)cc2)c2c(c1)C(c1ccccc1)CCCO2` (stereo not drawn) [Example 65, methyl 2-methoxy-6-(5-phenyl-9-(3-(p-tolyl)ureido)-2,3,4,5-tetrahydrobenzo[b]oxepin-7-yl)benzoate], 6.42.
The molecule `O=C(Nc1ccc(Cl)cc1F)Nc1cc(-c2ccccc2-c2nnn[nH]2)cc2c1OCCCC2C1CC1` (single isomer, unassigned) [41 (En. 2), 1-(7-(2-(1H-tetrazol-5-yl)phenyl)-5-cyclopropyl-2,3,4,5-tetrahydrobenzo[b]oxepin-9-yl)-3-(4-chloro-2-fluorophenyl)urea] gave a negative-log IC50 (pIC50) of 7.03.
To `Cc1ccc(NC(=O)Nc2cc(-c3ccccc3-c3nnn[nH]3)cc3c2OC(C)(C)C3)cc1` [Example 120, 1-(5-(2-(1H-Tetrazol-5-yl)phenyl)-2,2-dimethyl-2,3-dihydrobenzofuran-7-yl)-3-(p-tolyl)urea] belongs 6.34; to `O=C(Nc1ccc(Cl)cc1F)Nc1cc(-c2ccccc2-c2nnn[nH]2)cc2c1OCCCC2C1CC1` (single isomer, unassigned) [41 (En. 1), 1-(7-(2-(1H-tetrazol-5-yl)phenyl)-5-cyclopropyl-2,3,4,5-tetrahydrobenzo[b]oxepin-9-yl)-3-(4-chloro-2-fluorophenyl)urea], 7.60.
To `O=C(Nc1cc(-c2ccccc2-c2nnn[nH]2)cc2c1OCCCC2c1ccccc1)NC1CC1` (single isomer, unassigned) [23 (En. 2), 1-(7-(2-(1H-tetrazol-5-yl)phenyl)-5-phenyl-2,3,4,5-tetrahydrobenzo[b]oxepin-9-yl)-3-cyclopropylurea] belongs below 5.22.
`O=C(Nc1nc2ccccc2s1)Nc1cc(-c2ccccc2-c2nnn[nH]2)cc2c1OCCCC2c1ccccc1` (stereo not drawn) [Example 18, 1-(7-(2-(1H-tetrazol-5-yl)phenyl)-5-phenyl-2,3,4,5-tetrahydrobenzo[b]oxepin-9-yl)-3-(benzo[d]thiazol-2-yl)urea] had a negative-log IC50 (pIC50) of 6.02.
The result for `Cc1ccc(NC(=O)Nc2cc(-c3ccccc3-c3nc(=O)o[nH]3)cc3c2OCCCC3C2CC2)cc1` (single isomer, unassigned) [Example 33-2, 1-(5-cyclopropyl-7-(2-(5-oxo-2,5-dihydro-1,2,4-oxadiazol-3-yl)phenyl)-2,3,4,5-tetrahydrobenzo[b]oxepin-9-yl)-3-(p-tolyl)urea] reads 8.10; that for `C=C[C@H]1Oc2c(NC(=O)Nc3ccc(C)cc3)cc(-c3ccccc3-c3nnn[nH]3)cc2[C@@H]1CCC(F)(F)F` (racemic) [Example 94, (+/−)-1-((trans)-5-(2-(1H-tetrazol-5-yl)phenyl)-3-(3,3,3-trifluoropropyl)-2-vinyl-2,3-dihydrobenzofuran-7-yl)-3-(p-tolyl)urea], 7.72; that for `CC(=O)NS(=O)(=O)c1ccccc1-c1cc(NC(=O)Nc2ccc(C)cc2)c2c(c1)C(c1ccccc1)CCCO2` (single isomer, unassigned) [Example 58, N-((2-(5-phenyl-9-(3′-(p-tolyl)ureido)-2,3,4,5-tetrahydrobenzo[b]oxepin-7-yl)phenyl)sulfonyl)acetamide], 5.87.
The result for `CCC1Oc2c(NC(=O)Nc3ccc(C)cc3)cc(-c3ccccc3-c3nnn[nH]3)cc2C1CCC(F)(F)F` (racemic) [Example 102] reads 7.89.
To `Cc1ccc(NC(=O)Nc2cc(-c3ccccc3-c3nnn[nH]3)cc3c2OCC(O)C(O)C3c2ccccc2)cc1` (racemic) [9 (Rac.), 1-(7-(2-(1H-tetrazol-5-yl)phenyl)-3,4-dihydroxy-5-phenyl-2,3,4,5-tetrahydrobenzo[b]oxepin-9-yl)-3-(p-tolyl)urea] belongs 5.99; to `Fc1ccc2nc(Nc3cc(-c4ccccc4-c4nnn[nH]4)cc4c3OCCCC4c3ccccc3)sc2c1` (single isomer, unassigned) [57 (En. 1), N-(7-(2-(1H-tetrazol-5-yl)phenyl)-5-phenyl-2,3,4,5-tetrahydrobenzo[b]oxepin-9-yl)-6-fluorobenzo[d]thiazol-2-amine], 6.07.
As to `C=C[C@@H]1Oc2c(NC(=O)Nc3ccc(C)cc3)cc(-c3ccccc3-c3nnn[nH]3)cc2[C@H]1CCC(F)(F)F` (single isomer, unassigned) [Example 101, 1-((trans)-5-(2-(1H-tetrazol-5-yl)phenyl)-3-(3,3,3-trifluoropropyl)-2-vinyl-2,3-dihydrobenzofuran-7-yl)-3-(p-tolyl)urea], the negative-log IC50 (pIC50) was 8.15.
`O=C(Nc1ccccc1F)Nc1cc(-c2ccccc2-c2nnn[nH]2)cc2c1OCCCC2c1ccccc1` (single isomer, unassigned) [10 (En.2), 1-(7-(2-(1H-tetrazol-5-yl)phenyl)-5-phenyl-2,3,4,5-tetrahydrobenzo[b]oxepin-9-yl)-3-(2-fluorophenyl)urea] had a pIC50 of 7.38.
Regarding `Cc1ccc(NC(=O)Nc2cc(C(C)CC(=O)O)cc3c2O[C@H](C2CC2)[C@H]3c2ccccc2)cc1` (mixture of isomers) [Example 111, rac-3-((2R,3S)-2-cyclopropyl-3-phenyl-7-(3-(p-tolyl)ureido)-2,3-dihydrobenzofuran-5-yl)butanoic acid], the pIC50 is 5.85.
To `COC(=O)c1c(C)cccc1-c1cc(NC(=O)Nc2ccc(C)cc2)c2c(c1)C(c1ccccc1)CCCO2` (stereo not drawn) [Example 66, methyl 2-methyl-6-(5-phenyl-9-(3-(p-tolyl)ureido)-2,3,4,5-tetrahydrobenzo[b]oxepin-7-yl)benzoate] belongs 6.49; to `Cc1ccc(NC(=O)Nc2cc(-c3ccccc3-c3nnn[nH]3)cc3c2O[C@@H](C)[C@H]3c2ccccc2)cc1` (relative stereo) [Example 113, rel-1-((2R,3R)-5-(2-(2H-tetrazol-5-yl)phenyl)-2-methyl-3-phenyl-2,3-dihydrobenzofuran-7-yl)-3-(p-tolyl)urea], 7.11; to `Cc1csc(NC(=O)Nc2cc(-c3ccccc3-c3nnn[nH]3)cc3c2OCCCC3c2ccccc2)n1` (stereo not drawn) [Example 12, 1-(7-(2-(1H-tetrazol-5-yl)phenyl)-5-phenyl-2,3,4,5-tetrahydrobenzo[b]oxepin-9-yl)-3-(4-methylthiazol-2-yl)urea], 5.97.
`CC1(C)Oc2c(NC(=O)Nc3ccccc3F)cc(-c3ccccc3-c3nnn[nH]3)cc2C1c1ccccc1` (racemic) [Example 125, (±)-1-(5-(2-(1H-Tetrazol-5-yl)phenyl)-2,2-dimethyl-3-phenyl-2,3-dihydrobenzofuran-7-yl)-3-(2-fluorophenyl)urea] gave a pIC50 of 7.04.

(Values after patent US12145927B2 (BRISTOL-MYERS SQUIBB COMPANY, priority 2018, dated 2024).)
